Test results from patent publication US5478864A, “Method for disinfection using a 1,n-bis(N^5 -trifluoromethyl-phenyl-N^1 -biguanido)-alkane” (Mitsubishi Materials Corp., priority 1991, dated 1995).
≈ marks a conversion by molar mass, not a printed value. Like-named read-outs stand apart in the source and are kept apart here.

Key:
[1] = tested on: Klebsiella pneumoniae IID 865; experiment: minimum growth inhibition concentration, agar dilution; type: cell-based
Protocol: (§1) Germicidal activity of the compound prepared in Example 1 (Compound I) was evaluated by the minimum growth inhibition concentration method (based on the standard method stipulated by Japan Society of Chemotherapy) and the phenol coefficient method.
(§2) A portion of the digluconate salt of the compound of Example 1 was dissolved in water and the solution was heated to dryness on a water bath. The dried salt was dissolved in acetic acid (potentiometric titration grade) and the concentration thereof was determined by potentiometric titration using a perchloric acid solution. The gluconate acid salt solution, whose concentration was thus determined, was diluted to predetermined concentrations with sterilized water. Each 1 ml of the solution of each concentration was placed in a Petri dish, 9 ml of Mueller-Hinton agar (supplied by Difco) was added thereto and well mixed. Thus sensitivity test media were prepared. The concentrations of the compound were 200 μg/ml and 2^n times wherein (n=-8 to 2). Separately, microorganism strains indicated in Table 1 were subcultured in propagation media (using Mueller-Hinton broth supplied by Difco) at 37° C. for 24 hours. The microorganism concentration was adjusted to 10^6 /ml. The thus obtained cultures were respectively inoculated on a series of sensitivity measuring culture media using an inoculation rod. […] The results are shown in Table 1 together with the result on chlorhexidine as a control.
(§3) Disinfecting effect of the above-prepared compounds was tested by measurement of minimum growth inhibition concentration and by the test for immediate effect in the same manner as in Example 3.

[2] = tested on: Flavobacterium meningosepticum RIMD 0614002; experiment: as above; type: cell-based; settings: Elizabethkingia meningoseptica, RIMD0614002; Mueller-Hinton agar; digluconate
Protocol: as §1, §2, §3

[3] = tested on: Pseudomonas aerugimosa (clinically collected); experiment: as above; type: cell-based; settings: Mueller-Hinton agar, digluconate
Protocol: as §1, §2, §3

[4] = tested on: Alcaligenes faecalis IPO 13111; experiment: as above; type: cell-based; settings: IPO13111, Mueller-Hinton agar, digluconate
Protocol: as §1, §2, §3

[5] = tested on: Escherichia coli IID 861; experiment: as above; type: cell-based
Protocol: as §1, §2, §3

[6] = tested on: Escherichia coli NIHJ JC-2; experiment: as above; type: cell-based
Protocol: as §1, §2, §3

[7] = tested on: Staphylococcus epidermis IID 866; experiment: as above; type: cell-based
Protocol: as §1, §2, §3

[8] = tested on: Pseudomonas cepacia (collected Chiba Univ.); experiment: as above; type: cell-based; settings: Burkholderia cepacia, Mueller-Hinton agar, digluconate
Protocol: as §1, §2, §3

[9] = tested on: Achromobacter xylosoxidans RIMD 0101001; experiment: as above; type: cell-based; settings: RIMD0101001, Mueller-Hinton agar, digluconate
Protocol: as §1, §2, §3

[10] = tested on: Proteus vulgaris IID 874; experiment: as above; type: cell-based; settings: IID874, Mueller-Hinton agar, digluconate
Protocol: as §1, §2, §3

[11] = tested on: Staphylococcus aureus FDA 209-P; experiment: as above; type: cell-based; settings: FDA209, Mueller-Hinton agar
Protocol: as §1, §2
(§4) Compounds of formula I, wherein the trifluoromethyl group is located at the p-position and n is 2, 3, 5, 8 and 11, were prepared starting from ethylene diamine dichloride, 1,3-propane diamine dichloride, 1,5-pentane diamine dichloride, 1,8-octane diamine dichloride or 1,11-undecane diamine dichloride, sodium dicyanamide and 4-trifluoromethyl aniline hydrochloride in accordance with the procedures as described above and minimum growth inhibition concentration (MIC) was determined in the same manner as above.
as §3
(§5) Compounds of formula I, wherein the trifluoromethyl group is located at the m-position and n is 2, 3, 5 and 8, 11 were prepared starting from ethylene diamine dihydrochloride, 1,3-propane diamine dihydrochloride, 1,5-pentane diamine dihydrochloride, 1,8-octane diamine dihydrochloride or 1,11-undecane diamine dihydrochloride, sodium dicyanamide and 3-trifluoromethylaniline hydrochloride in accordance with the procedures of Example 4 and germicidal activity thereof were determined in the same manner.

[12] = tested on: Serratia marcescens IID 602; experiment: as above; type: cell-based
Protocol: as §1, §2, §4, §3, §5

[13] = tested on: Escherichia coli IID 951; experiment: as above; type: cell-based
Protocol: as §1, §2, §4, §3, §5

[14] = tested on: Pseudomonas aeruginosa IID 1042; experiment: as above; type: cell-based; settings: Pseudomonas aeruginosa, IID1042, Mueller-Hinton agar, read-out: MIC
Protocol: as §1, §2, §4, §3, §5

[15] = tested on: general bacteria; settings: cited from earlier work
[16] = gluconate salt; cited from earlier work
[17] = tested on: Staphylococcus aureus (clin'ly col'ted MRSA); experiment: minimum growth inhibition concentration, agar dilution (second MRSA line); type: cell-based; settings: Mueller-Hinton agar, digluconate, clinically collected MRSA
Protocol: as §1, §2, §3

[18] = administered to mucous membranes in a conventionally employed concentration; cited from earlier work
[19] = tested on: some Gram-negative bacteria, especially Pyocyaneus bacilli; settings: cited from earlier work
[20] = tested on: Staphylococcus aureus FDA 209-P; experiment: test for immediate effect (phenol coefficient method); type: cell-based; settings: of three runs, conc. 0.0005%, 20° C.
Protocol: (§6) Immediate effect of this compound was evaluated in accordance with the phenol coefficient method described in "Directions for Hygienic Tests" compiled by the Ministry of Health and Welfare of Japan. The method is as follows. (1) Culture medium Each 10 ml of the bouillon described below was taken into test tubes and they were sterilized with high pressure steam at 120° C. for 20 minutes. (2) Test method Diluted solutions of a series of concentrations of the sample compound were prepared for each of microorganisms listed in Table 2. Each 10 ml of the solutions was put into an appraisal test tube and the test tubes were placed in a thermostat bath kept at 20° C. Each microorganism was subcultured in the above described bouillon medium for testing disinfectants for three generations (37° C. for 48 hours). Each 1 ml of each culture was placed in each of the above-described series of appraisal test tubes and well mixed. After 2.5, 5, 10 and 15 minutes, 0.1 ml of the content of each appraisal test tube was taken and inoculated onto each portion of the bouillon medium for testing disinfectants. […] Each test was carried out three times. Immediate effect of disinfectants was compared by number of test runs in which microorganism growth was observed. […]

[21] = tested on: Escherichia coli IID 861; experiment: as above; type: cell-based; settings: of three runs, conc. 0.001%, 20° C.
Protocol: as §6

[22] = tested on: Pseudomonas aeruginosa IID 1042; experiment: as above; type: cell-based; settings: of three runs, conc. 0.03%, 20° C.
Protocol: as §6

[23] = tested on: Staphylococcus aureus (clin'ly col'ted MRSA); experiment: minimum growth inhibition concentration, agar dilution (first MRSA line); type: cell-based
Protocol: as §1, §2, §3

[24] = tested on: other microorganisms; experiment: minimum growth inhibition concentration, other microorganisms of Table 1; type: cell-based; settings: against other microorganisms
Protocol: as §1
A portion of the digluconate salt of the compound of Example 1 was dissolved in water and the solution was heated to dryness on a water bath. The dried salt was dissolved in acetic acid (potentiometric titration grade) and the concentration thereof was determined by potentiometric titration using a perchloric acid solution. The gluconate acid salt solution, whose concentration was thus determined, was diluted to predetermined concentrations with sterilized water. Each 1 ml of the solution of each concentration was placed in a Petri dish, 9 ml of Mueller-Hinton agar (supplied by Difco) was added thereto and well mixed. Thus sensitivity test media were prepared. The concentrations of the compound were 200 μg/ml and 2^n times wherein (n=-8 to 2). Separately, microorganism strains indicated in Table 1 were subcultured in propagation media (using Mueller-Hinton broth supplied by Difco) at 37° C. for 24 hours. The microorganism concentration was adjusted to 10^6 /ml. The thus obtained cultures were respectively inoculated on a series of sensitivity measuring culture media using an inoculation rod. […]

Compound	MIC [2]	MIC [3]	MIC [4]	MIC [8]	MIC [9]	MIC [10]	MIC [11]	MIC [14]	MIC [17]	number of test runs in which microorganism growth was observed ([20]; contact time 2.5 min)	number of test runs in which microorganism growth was observed ([20]; contact time 5.0 min)	number of test runs in which microorganism growth was observed ([20]; contact time 10.0 min)	number of test runs in which microorganism growth was observed ([20]; contact time 15.0 min)	number of test runs in which microorganism growth was observed ([21]; contact time 2.5 min)	number of test runs in which microorganism growth was observed ([21]; contact time 5.0 min)	number of test runs in which microorganism growth was observed ([21]; contact time 10.0 min)	number of test runs in which microorganism growth was observed ([21]; contact time 15.0 min)	number of test runs in which microorganism growth was observed ([22]; contact time 2.5 min)	number of test runs in which microorganism growth was observed ([22]; contact time 5.0 min)	number of test runs in which microorganism growth was observed ([22]; contact time 10.0 min)	further results
[H]/N=C(\N/C(=N/[H])NCCCCCCNC(=N)NC(=N)Nc1ccc(Cl)cc1)Nc1ccc(Cl)cc1 [CHXD, chlorhexidine, reference compound]	200 µg/mL (≈ 396 µM)	100 µg/mL (≈ 198 µM)	50 µg/mL (≈ 98.9 µM)	100 µg/mL (≈ 198 µM)	25 µg/mL (≈ 49.5 µM)	200 µg/mL (≈ 396 µM)	0.78 µg/mL (≈ 1.54 µM)	100 µg/mL (≈ 198 µM)	3.13 µg/mL (≈ 6.19 µM)	3	1	0	0	3	3	3	3	2	1	0	MIC ([1]; IID865): 6.25 µg/mL (≈ 12.4 µM); MIC ([5]; IID861): 1.56 µg/mL (≈ 3.09 µM); MIC ([6]; NIHJJC2): 1.56 µg/mL (≈ 3.09 µM); MIC ([7]; IID866): 1.56 µg/mL (≈ 3.09 µM); MIC ([12]; IID602): 6.25 µg/mL (≈ 12.4 µM); MIC ([13]; IID951): 1.56 µg/mL (≈ 3.09 µM); disinfecting effect [15]: exhibits disinfecting effect on a wide range of general bacteria; solubility in water [16]: high solubility in water; shock symptoms [18]: sometimes causes shock symptoms; effect against some Gram-negative bacteria, especially Pyocyaneus bacilli [19]: less effective; number of test runs in which microorganism growth was observed ([22]; contact time 15.0 min): 0; MIC ([23]; MRSA): 6.25 µg/mL (≈ 12.4 µM)
N=C(NCCCCCCNC(=N)NC(=N)Nc1ccc(C(F)(F)F)cc1)NC(=N)Nc1ccc(C(F)(F)F)cc1 [Ex. 1, 1,6-bis(N^5-p-trifluoromethylphenyl-N^1-biguanido)-hexane]	200 µg/mL (≈ 349 µM)	12.5 µg/mL (≈ 21.8 µM)	6.25 µg/mL (≈ 10.9 µM)	50 µg/mL (≈ 87.3 µM)	50 µg/mL (≈ 87.3 µM)	25 µg/mL (≈ 43.7 µM)	1.56 µg/mL (≈ 2.72 µM)	12.5 µg/mL (≈ 21.8 µM)	1.56 µg/mL (≈ 2.72 µM)	0	0	0	0	3	3	2	1	0	0	0	MIC ([1]; IID865, Mueller-Hinton agar, digluconate, read-out: MIC): 3.13 µg/mL (≈ 5.47 µM); MIC ([5]; IID861, Mueller-Hinton agar, digluconate, IID 861, read-out: MIC): 3.13 µg/mL (≈ 5.47 µM); MIC ([6]; NIHJJC2, Mueller-Hinton agar, digluconate, NIHJ JC-2, read-out: MIC): 3.13 µg/mL (≈ 5.47 µM); MIC ([7]; IID866, Mueller-Hinton agar, digluconate, IID 866, read-out: MIC): 1.56 µg/mL (≈ 2.72 µM); MIC ([12]; IID602, Mueller-Hinton agar, IID 602, read-out: MIC): 6.25 µg/mL (≈ 10.9 µM); MIC ([13]; IID951, Mueller-Hinton agar, IID 951, read-out: MIC): 3.13 µg/mL (≈ 5.47 µM); germicidal effect compared with chlorhexidine [24]: effective at the same level as chlorhexidine; number of test runs in which microorganism growth was observed ([22]; contact time 15.0 min): 0; MIC ([23]; Mueller-Hinton agar, digluconate, clinically collected MRSA, first line, read-out: MIC): 6.25 µg/mL (≈ 10.9 µM)
